Experiment [1] concerns the target T1, xanthine oxidase (Bos taurus, UniProt P80457).
T1 construct: purchased Sigma Chemical Company; host or cells: butter milk
In words: In vitro determination of xanthine oxidase (XOD) inhibition. To be noted: xanthine oxidase from butter milk, xanthine substrate, pH 7.4, 37° C. It is filed as biochemical.

Experiment [2] has as its system serum uric acid. In words: Determination of oral administration: lowering of serum uric acid in mice. Particulars: Mus musculus; ICR male mice, oral, 1 mg/kg, 2 hours after administration, serum; read-out: Activity of lowering uric acid. It counts as in vivo, ICR male mice. An outline of the steps:
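Male ICR mice (about 7 weeks, n=6) dosed orally at 1 mg/kg as suspension in 5% gum arabic. Cardiac blood taken 2 h post-dose under ether; serum uric acid measured enzymatically on an automatic analyzer and expressed as percent lowering.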

Experiment [3] has as its system interleukin 1 production. In words: Interleukin 1 production inhibitory activity (LPS, abdominal exuded macrophage, ELISA). It is filed as cell-based, BALB/c mouse. Particulars: 10^-6 M, 1 μg/ml LPS, 24 hours, mouse macrophage. As for the experimental part:
1 ml of a 5% oyster glycogen solution was intra-abdominally administered to a BALB/c mouse (male, 8 weeks in age), and 4 days after the administration, the infiltrated abdominal exuded cells were adhered to a plastic dish for 2 hours, and 1 μg/ml of LPS was allowed to act on macrophage (1×10^6 cells). Interleukin 1 extricated on the supernatant in 24 hours was measured by an ELISA technique. The test compound (compounds of Ex. No. described in Table 3) was prepared so as to have a concentration of 10^-6 M, and the interleukin 1 production inhibitory activity was, expressed in terms of the percentage inhibition based on the amount of production of the control.
For orientation: ELISA stands for enzyme-linked immunosorbent assay.

The subject of experiment [4] is collagen arthritis. In words: Collagen arthritis inhibitory activity (bovine II type collagen in rats). Particulars: 6 weeks; for Swelling: 5 times per week, right foot volume increase, control 45.5 ± 5.1; for Antibody titer of anti-collagen: serum, ELISA, control 2.04 ± 0.36. It is filed as in vivo, Lewis rats. The procedure: An emulsion comprising a bovine II type collagen and incomplete Freund's adjuvant in a proportion of 1:1 were intradermally injected to Lewis rats (male, about 6 weeks in age) (one group: 8 […]) at the region of the back so that the amount of antigen was 2 mg/rat, thereby inducing arthritis. The compound of Ex. No. 35 was suspended in a 5% gum arabic solution, and orally administered 5 times per week in two groups of 10 mg/kg and 50 mg/kg from the sensitized day. Only the gum arabic solution was administered to the control. Then 6 weeks after the sensitization, the percentage increase in the volume of the right foot was measured and expressed in terms of the percentage swelling, and the anti-collagen antibody titer of the serum was measured by the ELISA technique.

“And” between values parts separate entries of the source, which are not always exact repeats. Identical values can stand only once.

Results on 3 compounds are retold here after US5614520A, “2-arylthiazole derivatives and pharmaceutical composition thereof” (priority 1990, dated 1997).

T1 sequence (P80457 whole entry): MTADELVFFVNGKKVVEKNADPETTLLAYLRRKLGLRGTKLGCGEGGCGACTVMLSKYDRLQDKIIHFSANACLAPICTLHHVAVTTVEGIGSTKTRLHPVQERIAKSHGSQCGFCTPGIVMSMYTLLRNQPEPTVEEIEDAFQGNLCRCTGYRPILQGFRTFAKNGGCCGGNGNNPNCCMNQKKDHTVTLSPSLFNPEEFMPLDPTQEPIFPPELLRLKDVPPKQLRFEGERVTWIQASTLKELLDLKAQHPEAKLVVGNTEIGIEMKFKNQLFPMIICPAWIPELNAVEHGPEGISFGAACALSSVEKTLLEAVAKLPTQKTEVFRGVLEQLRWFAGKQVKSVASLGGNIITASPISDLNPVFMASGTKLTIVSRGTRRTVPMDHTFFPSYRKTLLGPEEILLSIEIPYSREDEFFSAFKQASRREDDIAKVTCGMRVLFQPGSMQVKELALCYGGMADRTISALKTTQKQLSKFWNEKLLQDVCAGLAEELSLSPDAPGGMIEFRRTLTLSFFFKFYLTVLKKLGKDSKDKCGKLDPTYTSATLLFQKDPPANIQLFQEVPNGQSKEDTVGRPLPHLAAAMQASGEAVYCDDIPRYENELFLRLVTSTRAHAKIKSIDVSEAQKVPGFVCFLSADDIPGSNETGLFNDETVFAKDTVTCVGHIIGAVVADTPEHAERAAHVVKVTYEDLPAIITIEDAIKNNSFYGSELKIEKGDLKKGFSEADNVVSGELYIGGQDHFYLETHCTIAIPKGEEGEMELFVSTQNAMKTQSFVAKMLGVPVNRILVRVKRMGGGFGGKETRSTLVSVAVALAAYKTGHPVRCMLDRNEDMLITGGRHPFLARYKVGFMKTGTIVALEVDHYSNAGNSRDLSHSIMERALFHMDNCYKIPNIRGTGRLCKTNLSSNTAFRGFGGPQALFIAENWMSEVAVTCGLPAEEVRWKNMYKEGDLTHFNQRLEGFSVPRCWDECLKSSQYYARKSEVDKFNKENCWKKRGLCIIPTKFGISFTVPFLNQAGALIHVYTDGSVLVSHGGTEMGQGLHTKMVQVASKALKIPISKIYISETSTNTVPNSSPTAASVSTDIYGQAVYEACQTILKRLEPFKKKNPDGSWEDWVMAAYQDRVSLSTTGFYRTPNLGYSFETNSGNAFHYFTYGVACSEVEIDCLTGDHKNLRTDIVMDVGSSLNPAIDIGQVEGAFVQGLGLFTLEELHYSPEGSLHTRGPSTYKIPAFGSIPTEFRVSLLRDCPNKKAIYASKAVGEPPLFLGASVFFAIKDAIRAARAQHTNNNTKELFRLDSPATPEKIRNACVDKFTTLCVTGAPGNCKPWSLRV

A word on the IC50: it is the concentration that gives 50% inhibition. Usually inhibition stands for the drop in the measured response relative to a control, in per cent. Low values mean a response near the control, high ones a response far below the control. As for `Cc1nc(-c2ccc(C(=O)c3ccccc3)cc2)sc1C(=O)O` [Example 20, 2-(4-Benzoylphenyl)-4-methyl-5-thiazolecarboxylic acid], in experiment [1], the IC50 is 6 nM and 6.2 nM. In experiment [2], the inhibition in vivo at 1 mg/kg was found to be 18%. Besides, the inhibition at 1 µM in experiment [3] was 65%. Further, the Swelling is recorded as 25.4 ± 5.3% in experiment [4] (10 mg/kg oral, *P < 0.05) and 21.2 ± 4.2% in experiment [4] (50 mg/kg oral, **P < 0.01). Also, the entries for the “Antibody titer of anti-collagen” value in experiment [4] (10 mg/kg oral) and in experiment [4] (50 mg/kg oral) were 1.88 ± 0.20 μU/ml and 1.68 ± 0.32 μU/ml, respectively.
Compound `Cc1ccc(C(=O)c2ccc(-c3nc(C)c(C(=O)O)s3)cc2)cc1` [Example 74, 4-Methyl-2-(4-(4-methylbenzoyl)phenyl)-5-thiazolecarboxylic acid] showed an IC50 in experiment [1] of 4.8 nM. The inhibition in vivo at 1 mg/kg in experiment [2] is 39%. Also, in experiment [3], the inhibition at 1 µM is 52%.
`Cc1ccc(C(=O)c2ccc(-c3nc(C)c(C(=O)O)s3)cc2)c(C)c1` [Example 75, 2-(4-(2,4-Dimethylbenzoyl)phenyl)-4-methyl-5-thiazolecarboxylic acid] returned an IC50 in experiment [1] of 0.83 nM. For the same compound, the inhibition in vivo at 1 mg/kg in experiment [2] came out at 33%. In experiment [3], this compound displayed an inhibition at 1 µM of 48%.
